{
  "source": "patent EP4596574A1",
  "about": "“GLP-1/GCG/GIP TRIPLE-RECEPTOR AGONIST AND USE THEREOF” (Sunshine Lake Pharma Co., Ltd., priority 2022, dated 2024)",
  "format_in_all_cases": "cell-based",
  "key": {"[1]": {"target": "T1, GLP-1R (Homo sapiens, UniProt P43220)", "T1 construct": "expressed in transfected cells; host or cells: HEK293 (HEK293-GLP-1R)", "T1 sequence (P43220 24-463, species assumed)": "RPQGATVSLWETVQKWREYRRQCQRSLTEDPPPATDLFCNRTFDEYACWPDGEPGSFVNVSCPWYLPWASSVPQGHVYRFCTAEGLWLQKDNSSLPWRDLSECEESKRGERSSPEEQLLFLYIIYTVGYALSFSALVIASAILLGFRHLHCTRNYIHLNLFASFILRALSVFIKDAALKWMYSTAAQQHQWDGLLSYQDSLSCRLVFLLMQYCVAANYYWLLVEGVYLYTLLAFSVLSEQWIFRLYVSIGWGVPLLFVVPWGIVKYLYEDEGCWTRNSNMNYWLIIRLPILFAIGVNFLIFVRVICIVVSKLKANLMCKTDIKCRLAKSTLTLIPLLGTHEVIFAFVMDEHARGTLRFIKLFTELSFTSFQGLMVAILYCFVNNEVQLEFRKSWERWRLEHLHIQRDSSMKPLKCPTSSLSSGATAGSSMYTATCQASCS", "assay": "In vitro cell activity, cAMP production in HEK293 cells expressing GLP-1R", "details": "HEK293-GLP-1R cells, cAMP; read-out: GLP-1R (EC50)", "protocol": "(§1) After they were completely thawed within 1.5 minutes, the cells were added dropwise into a 15 mL centrifuge tube containing 8 mL of warm culture medium in a clean bench. The tubes were centrifuged at 900 rpm for 5 minutes, the supernatant was discarded, and the cells were resuspended in 1 mL of complete culture medium (by pipetting 15 times). 20 µL of the suspension was immediately taken and mixed with an equal volume of trypan blue. 20 µL was taken to count the number of live cells, and the cells were diluted to 4×10^5 cells/mL with complete culture medium. • 4) The 384-well plate was divided into GLP-1R cell, GCGR cell and GIPR cell areas. The cell suspension was added to the wells of the corresponding area at 5 µL per well using a 12-channel variable-channel adjustable dispenser. […] Then, the diluted cAMP-d2 working solution and anti-cAMP-crytate working solution were mixed evenly in a ratio of 1:1, and 10 µL was added to each well of the sample group. The wells were covered with white lids and placed at room temperature in the dark for 1 hour or at 4 °C overnight. • 6) The fluorescence values at 665 nm and 620 nm were detected in a multifunctional microplate reader. In GraphPad Prism 6, the signal ratio and sample concentration were nonlinearly fitted using a four-parameter equation to obtain the EC50 value."}, "[2]": {"target": "T2, GCGR (Homo sapiens, UniProt P47871)", "T2 construct": "expressed in transfected cells; host or cells: HEK293 (HEK293-GCGR)", "T2 sequence (P47871 26-477, species assumed)": "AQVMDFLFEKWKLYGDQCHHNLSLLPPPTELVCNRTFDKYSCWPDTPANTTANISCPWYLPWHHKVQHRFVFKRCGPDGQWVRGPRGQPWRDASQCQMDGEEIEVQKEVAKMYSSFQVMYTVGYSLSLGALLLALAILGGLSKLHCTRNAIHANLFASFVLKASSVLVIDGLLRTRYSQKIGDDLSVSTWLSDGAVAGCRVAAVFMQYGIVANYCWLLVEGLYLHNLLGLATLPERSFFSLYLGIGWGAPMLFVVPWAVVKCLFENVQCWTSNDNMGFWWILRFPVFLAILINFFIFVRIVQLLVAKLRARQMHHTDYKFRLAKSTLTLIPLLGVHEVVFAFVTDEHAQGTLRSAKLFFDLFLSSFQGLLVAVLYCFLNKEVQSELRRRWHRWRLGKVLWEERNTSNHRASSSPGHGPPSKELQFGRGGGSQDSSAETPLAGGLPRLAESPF", "assay": "In vitro cell activity, cAMP production in HEK293 cells expressing GCGR", "details": "HEK293-GCGR cells, cAMP; read-out: GCGR (EC50)", "protocol": "as §1"}, "[3]": {"target": "T3, GIPR (Homo sapiens, UniProt P48546)", "T3 construct": "expressed in transfected cells; host or cells: HEK293 (HEK293-GIPR)", "T3 sequence (P48546 22-466)": "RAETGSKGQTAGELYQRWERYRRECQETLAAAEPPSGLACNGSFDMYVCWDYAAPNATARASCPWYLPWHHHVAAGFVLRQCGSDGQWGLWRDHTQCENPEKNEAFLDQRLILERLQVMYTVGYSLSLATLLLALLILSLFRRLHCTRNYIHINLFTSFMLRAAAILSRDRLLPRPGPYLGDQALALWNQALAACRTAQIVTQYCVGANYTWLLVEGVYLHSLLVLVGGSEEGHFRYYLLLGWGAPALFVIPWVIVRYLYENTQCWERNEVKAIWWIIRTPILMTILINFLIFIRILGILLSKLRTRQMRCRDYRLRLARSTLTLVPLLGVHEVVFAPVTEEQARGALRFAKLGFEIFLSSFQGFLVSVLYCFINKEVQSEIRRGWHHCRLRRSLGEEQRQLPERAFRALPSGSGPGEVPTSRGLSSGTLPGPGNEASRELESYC", "assay": "In vitro cell activity, cAMP production in HEK293 cells expressing GIPR", "details": "HEK293-GIPR cells, cAMP; read-out: GIPR (EC50)", "protocol": "as §1, with “The wells were covered with white lids and placed at room temperature in the dark for 1 hour or at 4 °C overnight. • 6) The fluorescence values at 665 nm and 620 nm were detected in a multifunctional microplate reader.” left out"}},
  "note": "Starred links: 1 amine or outer side, 2 acyl side, 3 side chain; linkers in the order of their positions; H or OH if unused. Non-standard residues stand in square brackets, D forms with d. Residues, ends and D or L forms follow the SMILES beside them. Groups on a side chain read outwards from the residue. *: point of attachment. C18 diacid = O=C(O)CCCCCCCCCCCCCCCCC(=O)*; αMePhe(2-F) = C[C@](N)(Cc1ccccc1F)C(=O)O; γGlu = O=C(O)[C@H](CCC(=O)[*:2])N[*:1]; AEEA = NCCOCCOCC(=O)O; Aib = CC(C)(N)C(=O)O",
  "data": [
    {"smiles": "CC[C@H](C)[C@H](NC(=O)[C@H](CO)NC(=O)[C@H](Cc1ccc(O)cc1)NC(=O)[C@H](CC(=O)O)NC(=O)[C@H](CO)NC(=O)[C@@H](NC(=O)[C@](C)(Cc1ccccc1F)NC(=O)[C@@H](NC(=O)CNC(=O)[C@H](CCC(N)=O)NC(=O)C(C)(C)NC(=O)[C@@H](N)Cc1ccc(O)cc1)[C@@H](C)O)[C@@H](C)O)C(=O)N[C@@H](CC(C)C)C(=O)N[C@@H](CCCCNC(=O)COCCOCCNC(=O)CC[C@H](NC(=O)CCCCCCCCCCCCCCCCC(=O)O)C(=O)O)C(=O)N[C@@H](CC(=O)O)C(=O)N[C@@H](CCCNC(=N)N)C(=O)N[C@@H](CCCNC(=N)N)C(=O)N[C@@H](C)C(=O)N[C@@H](CCC(N)=O)C(=O)N[C@@H](CCC(N)=O)C(=O)N[C@@H](C)C(=O)N[C@@H](Cc1ccccc1)C(=O)N[C@H](C(=O)N[C@@H](CCC(=O)O)C(=O)N[C@@H](Cc1ccc(O)cc1)C(=O)N[C@@H](CC(C)C)C(=O)N[C@@H](CC(C)C)C(=O)N[C@@H](C)C(=O)NCC(=O)NCC(=O)N1CCC[C@H]1C(=O)N[C@@H](CO)C(=O)N[C@@H](CO)C(=O)NCC(=O)N[C@@H](C)C(=O)N1CCC[C@H]1C(=O)N1CCC[C@H]1C(=O)N1CCC[C@H]1C(=O)N[C@@H](CO)C(=O)O)C(C)C", "note": "[HEC-PT148] (H-Y[Aib]QGT[αMePhe(2-F)]TSDYSILK([AEEA-γGlu-C18 diacid])DRRAQQAFVEYLLAGGPSSGAPPPS-OH)", "values": [
      {"measurement": "EC50", "setting": "[1]", "result": 0.0741, "unit": "nM"},
      {"measurement": "EC50", "setting": "[2]", "result": 0.162, "unit": "nM"},
      {"measurement": "EC50", "setting": "[3]", "result": 0.312, "unit": "nM"}
    ]},
    {"smiles": "CC[C@H](C)[C@H](NC(=O)[C@H](Cc1ccccc1)NC(=O)[C@H](C)NC(=O)[C@H](CCC(N)=O)NC(=O)[C@H](CCC(N)=O)NC(=O)[C@H](CCCNC(=N)N)NC(=O)[C@H](CCCCNC(=O)COCCOCCNC(=O)CC[C@H](NC(=O)CCCCCCCCCCCCCCCCC(=O)O)C(=O)O)NC(=O)[C@H](CCC(=O)O)NC(=O)[C@H](CC(=O)O)NC(=O)[C@H](CC(C)C)NC(=O)[C@H](CC(C)C)NC(=O)[C@@H](NC(=O)[C@H](CO)NC(=O)[C@H](Cc1ccc(O)cc1)NC(=O)[C@H](CC(=O)O)NC(=O)[C@H](CO)NC(=O)[C@@H](NC(=O)[C@](C)(Cc1ccccc1F)NC(=O)[C@@H](NC(=O)CNC(=O)[C@H](Cc1c[nH]cn1)NC(=O)C(C)(C)NC(=O)[C@@H](N)Cc1ccc(O)cc1)[C@@H](C)O)[C@@H](C)O)[C@@H](C)CC)C(=O)N[C@@H](CCC(=O)O)C(=O)N[C@@H](Cc1ccc(O)cc1)C(=O)N[C@@H](CC(C)C)C(=O)N[C@@H](CC(C)C)C(=O)N[C@@H](CCC(=O)O)C(=O)NCC(=O)NCC(=O)N1CCC[C@H]1C(=O)N[C@@H](CO)C(=O)N[C@@H](CO)C(=O)NCC(=O)N[C@@H](C)C(=O)N1CCC[C@H]1C(=O)N1CCC[C@H]1C(=O)N1CCC[C@H]1C(=O)N[C@@H](CO)C(=O)O", "note": "[HEC-PT118]", "values": [
      {"measurement": "EC50", "setting": "[1]", "result": 1.2, "unit": "nM"},
      {"measurement": "EC50", "setting": "[2]", "result": 0.221, "unit": "nM"},
      {"measurement": "EC50", "setting": "[3]", "result": 0.128, "unit": "nM"}
    ]},
    {"smiles": "CC[C@H](C)[C@H](NC(=O)[C@H](Cc1ccccc1)NC(=O)[C@H](C)NC(=O)[C@H](CCC(N)=O)NC(=O)[C@H](C)NC(=O)[C@H](CCCNC(=N)N)NC(=O)[C@H](CCCCNC(=O)COCCOCCNC(=O)CC[C@H](NC(=O)CCCCCCCCCCCCCCCCCCC(=O)O)C(=O)O)NC(=O)[C@H](CCC(=O)O)NC(=O)[C@H](CC(=O)O)NC(=O)[C@H](CC(C)C)NC(=O)[C@H](CC(C)C)NC(=O)[C@@H](NC(=O)[C@H](CO)NC(=O)[C@H](Cc1ccc(O)cc1)NC(=O)[C@H](CC(=O)O)NC(=O)[C@H](CO)NC(=O)[C@@H](NC(=O)[C@](C)(Cc1ccccc1F)NC(=O)[C@@H](NC(=O)CNC(=O)[C@H](CCC(N)=O)NC(=O)C(C)(C)NC(=O)[C@@H](N)Cc1ccc(O)cc1)[C@@H](C)O)[C@@H](C)O)[C@@H](C)CC)C(=O)N[C@@H](CCC(=O)O)C(=O)N[C@@H](Cc1ccc(O)cc1)C(=O)N[C@@H](CC(C)C)C(=O)N[C@@H](CC(C)C)C(=O)N[C@@H](CCC(=O)O)C(=O)NCC(=O)NCC(=O)N1CCC[C@H]1C(=O)N[C@@H](CO)C(=O)N[C@@H](CO)C(=O)NCC(=O)N[C@@H](C)C(=O)N1CCC[C@H]1C(=O)N1CCC[C@H]1C(=O)N1CCC[C@H]1C(=O)N[C@@H](CO)C(=O)O", "note": "[HEC-PT94]", "values": [
      {"measurement": "EC50", "setting": "[1]", "result": 0.541, "unit": "nM"},
      {"measurement": "EC50", "setting": "[2]", "result": 0.0442, "unit": "nM"},
      {"measurement": "EC50", "setting": "[3]", "result": 1.3, "unit": "nM"}
    ]},
    {"smiles": "CC[C@H](C)[C@H](NC(=O)[C@H](Cc1ccccc1)NC(=O)[C@H](CCC(=O)O)NC(=O)[C@H](CCC(N)=O)NC(=O)[C@H](CCC(N)=O)NC(=O)[C@H](C)NC(=O)[C@H](CCCCNC(=O)COCCOCCNC(=O)CC[C@H](NC(=O)CCCCCCCCCCCCCCCCCCC(=O)O)C(=O)O)NC(=O)[C@H](CCC(=O)O)NC(=O)[C@H](CC(=O)O)NC(=O)[C@H](CC(C)C)NC(=O)[C@H](CC(C)C)NC(=O)[C@@H](NC(=O)[C@H](CO)NC(=O)[C@H](Cc1ccc(O)cc1)NC(=O)[C@H](CC(=O)O)NC(=O)[C@H](CO)NC(=O)[C@@H](NC(=O)[C@](C)(Cc1ccccc1F)NC(=O)[C@@H](NC(=O)CNC(=O)[C@H](CCC(N)=O)NC(=O)C(C)(C)NC(=O)[C@@H](N)Cc1ccc(O)cc1)[C@@H](C)O)[C@@H](C)O)[C@@H](C)CC)C(=O)N[C@@H](CCC(=O)O)C(=O)N[C@@H](Cc1c[nH]c2ccccc12)C(=O)N[C@@H](CC(C)C)C(=O)N[C@@H](CC(C)C)C(=O)N[C@@H](C)C(=O)NCC(=O)NCC(=O)N1CCC[C@H]1C(=O)N[C@@H](CO)C(=O)N[C@@H](CO)C(=O)NCC(=O)N[C@@H](C)C(=O)N1CCC[C@H]1C(=O)N1CCC[C@H]1C(=O)N1CCC[C@H]1C(=O)N[C@@H](CO)C(=O)O", "note": "[HEC-PT90]", "values": [
      {"measurement": "EC50", "setting": "[1]", "result": 0.313, "unit": "nM"},
      {"measurement": "EC50", "setting": "[2]", "result": 7.07, "unit": "nM"},
      {"measurement": "EC50", "setting": "[3]", "result": 0.186, "unit": "nM"}
    ]},
    {"smiles": "CC[C@H](C)[C@H](NC(=O)[C@H](Cc1ccccc1)NC(=O)[C@H](C)NC(=O)[C@H](CCC(N)=O)NC(=O)[C@H](CCC(N)=O)NC(=O)[C@H](CCCNC(=N)N)NC(=O)[C@@H](NC(=O)[C@H](CCCNC(=N)N)NC(=O)[C@H](CC(=O)O)NC(=O)[C@H](CCCCNC(=O)COCCOCCNC(=O)CC[C@H](NC(=O)CCCCCCCCCCCCCCCCC(=O)O)C(=O)O)NC(=O)[C@H](CC(C)C)NC(=O)[C@@H](NC(=O)[C@H](CO)NC(=O)[C@H](Cc1ccc(O)cc1)NC(=O)[C@H](CC(=O)O)NC(=O)[C@H](CO)NC(=O)[C@@H](NC(=O)[C@](C)(Cc1ccccc1F)NC(=O)[C@@H](NC(=O)CNC(=O)[C@H](CCC(N)=O)NC(=O)C(C)(C)NC(=O)[C@@H](N)Cc1ccc(O)cc1)[C@@H](C)O)[C@@H](C)O)[C@@H](C)CC)[C@@H](C)CC)C(=O)N[C@@H](CCC(=O)O)C(=O)N[C@@H](Cc1ccc(O)cc1)C(=O)N[C@@H](CC(C)C)C(=O)N[C@@H](CC(C)C)C(=O)N[C@@H](CCC(=O)O)C(=O)NCC(=O)NCC(=O)N1CCC[C@H]1C(=O)N[C@@H](CO)C(=O)N[C@@H](CO)C(=O)NCC(=O)N[C@@H](C)C(=O)N1CCC[C@H]1C(=O)N1CCC[C@H]1C(=O)N1CCC[C@H]1C(=O)N[C@@H](CO)C(=O)O", "note": "[HEC-PT146] (H-Y[Aib]QGT[αMePhe(2-F)]TSDYSILK([AEEA-γGlu-C18 diacid])DRIRQQAFIEYLLEGGPSSGAPPPS-OH)", "values": [
      {"measurement": "EC50", "setting": "[1]", "result": 0.365, "unit": "nM"},
      {"measurement": "EC50", "setting": "[2]", "result": 0.121, "unit": "nM"},
      {"measurement": "EC50", "setting": "[3]", "result": 0.105, "unit": "nM"}
    ]}
  ]
}
